Laboratory results from paper PMC12113707, “Microwave Assisted Synthesis of Antioxidant Dihydro-Pyrazole Hybrids as Possible Lipoxygenase Inhibitors” (Molecules, 2025).

Key:
[1] = Experimental lipophilicity RM by reverse phase thin layer chromatography (RP-TLC); format: physicochemical; conditions: methanol-water mobile phase
Description: Lipophilicity is a main physicochemical parameter for bioactive molecules, linking solubility, ligand-target binding interactions, membrane permeability absorption, distribution, bioavailability, metabolism, elimination and toxicological effects (ADMET), playing an important role in biological activity. The experimental values of lipophilicity RM were determined by reverse phase thin layer chromatography. For the experimental determination of lipophilicity the hydrophilic-lipid phase system is a mixture of methanol- water (90/10%). The theoretical lipophilicity values are determined by the Bioloom program (http://biobyte.com/bb/prod/bioloom.html, accessed on 8 April 2024) (Table 1). According to the calculated clog P values, the most lipophilic compounds are 3c, 3d and 3f while the less lipophilic ones are compounds 5a and 5b.
Melting points were determined on a MEL-Temp II (Lab. Devices, Holliston, MA, USA). In vitro tests were carried out using a UV-Vis spectra and recorded on a Perkin-Elmer 554 double-beam spectrophotometer (Perkin-Elmer Corporation Ltd., Lane Beaconsfield, Bucks, UK). Infrared spectra (KBr pellets) were recorded with Perkin-Elmer 597 spectrophotometer (Perkin-Elmer Corporation Ltd., Lane Beaconsfield, Bucks, UK). The ^1H […] Magnetic Resonance (^1H-NMR) spectra were acquired on an Agilent 500/54 (DD2) at 500 MHz in CDCl3 using tetramethylsilane as an internal standard. Agilent 500/54 (DD2) ^13C NMR spectra were acquired at 125 MHz in CDCl3 solutions with tetramethylsilane serving as an internal reference. Coupling constants J are expressed in Hz, and chemical shifts are reported in ppm. Thermo Fisher Scientific Inc., Waltham, MA, USA, used MeOH as the solvent to calculate mass spectra using an LC-PDA-MS Thermo Finnigan system (LC Pump Plus, Autosampler, Surveyor PDA Plus Detector) interfaced with an ESI MSQ Plus (Thermo Finnigan). Thin-layer chromatography using 5554 F254 Silica gel/TLC cards (Merck and Fluka Chemie GmbH Buchs, Steinheim, Switzerland) was used to monitor the reaction progress. Silica gel 60 F254 plates with a diameter of 2 mm were utilized for preparative thin layer chromatography (prep TLC) by Merck KgaA (ICH078057). Merck (20 × 20 cm) plates were used for the experimental assessment of the lipophilicity using reverse phase thin-layer chromatography (RP-TLC) TLC-Silica gel 60 F254 DC Kieselgel.
In this experiment, TLC silica gel 60 F254 1.05715.0001 commercial glass plates from Merck were used. The plates were first immersed in a 5% v/v solution of liquid paraffin in petroleum ether and left for 90 s to become completely impregnated with the stable lipophilic phase. They were then activated by standing for 30 min in an oven at 40 °C and kept there until the time of use. A 70% v/v MeOH/H2O mixture was used as the mobile phase. The mobile phase was saturated with a few drops of liquid paraffin before being used. The spots of the compounds were placed on the plate at a distance of 2 cm from the edges of the plate and also from each other. The development of the spots on the plates was carried out in closed chromatography chambers where the atmosphere is saturated with the mobile phase at room temperature. At the end of development, the solvent-formed front was marked and the plates are dried at 80 °C for about 20–30 min. The appearance of the spots was made under an ultraviolet light lamp. The Rf values were the average of 5–6 measurements for each compound and assuming that the compounds will have been rotated to different positions on the plates. The RM values were calculated from the corresponding Rf values according to the equation [67].RM = log [(1/Rf) − 1](1)

[2] = Interaction with the stable free radical DPPH (reducing activity); conditions: 517 nm
Description: In general, the compounds present moderate to good antioxidant activity. It seems that the dibenzylacetones present satisfactory antioxidant activity compared to the hybrids at 60 min (1b, 1d and 1f).
The tested compounds (0.1 mM final concentration) dissolved in DMSO were incubated with a solution of DPPH in absolute ethanol in absence of light. The absorbance at 20 and 60 min at 517 nm was recorded at room temperature. NDGA was used as the reference compound.

[3] = Inhibition of AAPH-induced linoleic acid peroxidation; conditions: 37 °C, 234 nm
Description: The ability of the compounds to inhibit AAPH-induced peroxidation of linoleic acid is another assay to investigate the antioxidant properties of the compounds. Azo compounds such as 2,2′-azobis dihydrochloride (2-amidinopropane) (AAPH) are capable of generating free radicals through spontaneous decomposition at 37 °C. The R- radicals react immediately with air-oxygen to produce peroxy radicals. AAPH was therefore used as the radical initiator and sodium linoleate as substrate subjected to peroxidation. Measurements were carried out at 234 nm using a UV/V is spectrophotometer. Dichalcone 1i substituted with two phenyl groups presents the lowest lipophilicity. […] Therefore, hydrophilic substituents offer an increase in activity.
The interaction of free radicals with cell membrane lipids induces free radical chain reactions, a process called lipid peroxidation. 930 μL of a phosphate buffer solution (0.05 M, pH = 7.4), 10 μL of the sodium linolate solution (16 mM in a buffer solution of Tris-HCl pH = 9) and 10 μL of the tested compounds (stock solutions 100 μΜ) were mixed and the oxidative procedure started after the addition of 50 μL AAPH at 37 °C under air conditions. The conjugated diene’s absorbance was measured at 234 nm at a thermostable spectrophotometer (37 °C) according to previous publication.

[4] = target: T1, soybean lipoxygenase (SLOX-1) (Glycine max, UniProt P08170); assay: Inhibition of soybean lipoxygenase in vitro; format: biochemical; conditions: pH 9, sodium linoleate substrate; for inhibition at 100 µM: read-out: LOX% Inhibition, 100 μM (±SD)
T1 construct: 200 μL of plant-derived lipoxygenase solution (1:9 × 10^−4 w/v, in saline); purchased Sigma Chemical, Co; host or cells: soybean (plant-derived)
T1 sequence (P08170 1-839): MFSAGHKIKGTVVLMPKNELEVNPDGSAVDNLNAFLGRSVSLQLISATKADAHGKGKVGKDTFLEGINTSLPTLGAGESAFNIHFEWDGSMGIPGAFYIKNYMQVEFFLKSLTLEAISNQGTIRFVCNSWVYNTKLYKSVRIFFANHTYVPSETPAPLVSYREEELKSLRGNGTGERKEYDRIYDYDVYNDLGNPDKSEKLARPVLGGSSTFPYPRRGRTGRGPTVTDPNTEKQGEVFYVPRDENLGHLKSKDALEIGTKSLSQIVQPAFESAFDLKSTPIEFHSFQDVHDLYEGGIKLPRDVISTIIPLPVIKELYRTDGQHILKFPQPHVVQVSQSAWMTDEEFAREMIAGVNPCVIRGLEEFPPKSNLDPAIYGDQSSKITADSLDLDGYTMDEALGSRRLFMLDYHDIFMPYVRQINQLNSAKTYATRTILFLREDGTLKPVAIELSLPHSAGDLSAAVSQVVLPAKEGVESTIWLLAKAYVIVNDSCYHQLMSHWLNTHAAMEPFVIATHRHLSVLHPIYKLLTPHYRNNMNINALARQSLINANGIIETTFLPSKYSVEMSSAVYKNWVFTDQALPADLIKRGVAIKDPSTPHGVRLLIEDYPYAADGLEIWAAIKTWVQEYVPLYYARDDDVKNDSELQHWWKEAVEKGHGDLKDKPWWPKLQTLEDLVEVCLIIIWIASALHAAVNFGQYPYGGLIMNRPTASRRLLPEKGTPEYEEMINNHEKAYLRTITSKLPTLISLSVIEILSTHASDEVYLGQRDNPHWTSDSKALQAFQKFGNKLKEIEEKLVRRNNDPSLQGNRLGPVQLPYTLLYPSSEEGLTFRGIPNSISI
Description: Soybean lipoxygenase SLOX-1 at pH 9 is used in vitro. During this assay linoleic acid sodium salt is converted to the corresponding 13-hydroperoxide. The reaction is recorded photometrically at 234 nm using the UV-based enzyme assay. […] It is known that soybean LOX inhibitory activity induced by NSAIDs is qualitatively quite similar to the inhibition observed on the rat mast cells LOX and this assay may be used as a qualitative or semi-quantitative screen for such activity.
To a quartz cell, add 790 μL of Tris-HCl pH = 9.0 buffer, 200 μL of plant-derived lipoxygenase solution (1:9 × 10^−4 w/v, in saline), 10 μL of the test compound solution and 100 μL of sodium linoleate solution (3 mM concentration). The absorbance was measured at 234 nm, where the change in absorbance due to the conversion of linoleic acid to […] was recorded. A solution of 790 μL of Tris-HCl pH = 9.0 buffer, 200 μL of a plant-derived lipoxygenase solution (1:9 × 10^−4 w/v, in saline), 10 μL of DMSO and 100 μL of sodium linoleate solution (3 mM concentration) was used as a control.

Structure (SMILES)	RM ± SD [1]	RA%, 100 μM, 20 min (±SD) [2]	AAPH% Inhibition, 100 μM (±SD) [3]	inhibition at 100 µM [4]	RA%, 100 μM, 60 min (±SD) [2]	IC50 ([4]; read-out: LOX IC50 (μM) (±SD))
FC(F)(F)c1ccc(/C=C/C2=NN(c3ccccc3)C(c3ccc(C(F)(F)F)cc3)C2)cc1 (centres unmarked) [Compound 2f]	1.31 ± 0.031	5 ± 0.2%	52 ± 2.5%	14 ± 0.8%		
CN(C)c1ccc(/C=C/C2=NN(c3ccc(C#N)cc3)C(c3ccc(N(C)C)cc3)C2)cc1 (centres unmarked) [Compound 4e, (E)-4-(5-(4-(dimethylamino)phenyl)-3-(4-(dimethylamino)styryl)-4,5-dihydro-1H-pyrazo-1yl)-benzonitrile]	0.49 ± 0.029	2 ± 0.1%	74 ± 0.9%	6 ± 0.5%	2 ± 0.2%	
CC(Cc1ccc(O)c(O)c1)C(C)Cc1ccc(O)c(O)c1 (centres unmarked) [NDGA, Nordihydroguaretic acid, reference compound]		87%			93%	
N#Cc1ccc(N2N=C(/C=C/c3ccc(Cl)cc3)CC2c2ccc(Cl)cc2)cc1 (centres unmarked) [Compound 4d, (E)-4-(5-(4-chlorophenyl)-3-(4-chlorostyryl)-4,5-dihydro-1H-pyrazol-1-yl)-benzonitrile]	0.85 ± 0.068	23 ± 0.3%	51 ± 0.2%		2 ± 0.1%	85 µM
N#Cc1ccc(N2N=C(/C=C/c3ccc(C(F)(F)F)cc3)CC2c2ccc(C(F)(F)F)cc2)cc1 (centres unmarked) [Compound 4f, (E)-4-(5-(4-(trifluoromethyl)phenyl)-3-(4-(trifluoromethyl)styryl)-4,5-dihydro-1H-pyrazol-1-yl)-benzonitrile]	0.8 ± 0.031		12 ± 1.1%	22 ± 1.8%		
N#Cc1ccc(N2N=C(/C=C/c3ccc(F)cc3)CC2c2ccc(F)cc2)cc1 (centres unmarked) [Compound 4b, (E)-4-(5-(4-fluorophenyl)-3-(4-fluorostyryl)-4,5-dihydro-1H-pyrazo-1-yl)-benzonitrile]	0.61 ± 0.053	2 ± 0.1%	97 ± 0.6%			
Cc1c(C)c2c(c(C)c1O)CCC(C)(C(=O)O)O2 (centres unmarked) [Trolox, 6-Hydroxy-2,5,7,8-tetramethyl-chroman2-carboxylic acid, reference compound]			92%			
NC(=O)N1N=C(/C=C/c2ccccc2)CC1c1ccccc1 (centres unmarked) [Compound 5a, (E)-5-phenyl-3-styryl-4,5-dihydro-1H-pyrazole-1-carboxamide]	0.06 ± 0.005		29 ± 2.2%	4 ± 0.3%		
N#Cc1ccc(N2N=C(/C=C/c3ccccc3)CC2c2ccccc2)cc1 (centres unmarked) [Compound 4a, (E)-4-(5-phenyl-3-styryl-4,5-dihydro-1H-pyrazo-1-yl)-benzonitrile]	−0.31 ± 0.023		98 ± 0.4%	39 ± 0.4%		
Brc1ccc(/C=C/C2=NN(c3ccccc3)C(c3ccc(Br)cc3)C2)cc1 (centres unmarked) [Compound 2c]	2.1 ± 0.17	21 ± 0.6%	68 ± 0.6%			
CC(=O)N1N=C(/C=C/c2ccc(F)cc2)CC1c1ccc(F)cc1 (centres unmarked) [Compound 6b, (E)-5-(4-fluorophenyl)-3-(4-fluorostyryl)-4,5-dihydro-1-H-pyrazol-1-ethan-1-one]	0.24 ± 0.021		46 ± 0.6%	26 ± 0.3%		
CC(=O)N1N=C(/C=C/c2ccc(Br)cc2)CC1c1ccc(Br)cc1 (centres unmarked) [Compound 6c, (E)-5-(4-bromophenyl)-3-(4-bromostyrene)-4,5-dihydro-1-H-pyrazol-1-ethan-1-one]	0.78 ± 0.051		71 ± 0.4%	1 ± 0.07%		
NC(=O)N1N=C(/C=C/c2ccc(Br)cc2)CC1c1ccc(Br)cc1 (centres unmarked) [Compound 5c, (E)-5-(4-bromophenyl)-3-(4-bromostyryl)-4,5-dihydro-1H-pyrazole-1-carboxamide]	0.60 ± 0.055		85 ± 0.6%	37 ± 0.6%		
